Laboratory results as given in PubChem BioAssay (NCI).
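How tested: cells in 96-well plates exposed to compound for 48 hours at five concentrations. TGI: total growth inhibition.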

What was measured:
Assay in all cases: NCI-60 cell line screen, 48 h
K-562 leukemia = system: K-562 leukemia
SK-MEL-2 melanoma = system: SK-MEL-2 melanoma
BT-549 breast = system: BT-549 breast
SF-539 CNS = system: SF-539 CNS
NCI-H460 lung = system: NCI-H460 lung
SK-MEL-28 melanoma = system: SK-MEL-28 melanoma
KM12 colon = system: KM12 colon
HCT-116 colon = system: HCT-116 colon
HL-60(TB) leukemia = system: HL-60(TB) leukemia
OVCAR-5 ovarian = system: OVCAR-5 ovarian
MOLT-4 leukemia = system: MOLT-4 leukemia
DU-145 prostate = system: DU-145 prostate
PC-3 prostate = system: PC-3 prostate
HCT-15 colon = system: HCT-15 colon
NCI-H23 lung = system: NCI-H23 lung
MDA-N = system: MDA-N
NCI-H226 lung = system: NCI-H226 lung
COLO 205 colon = system: COLO 205 colon
SR leukemia = system: SR leukemia
A498 renal = system: A498 renal
SF-268 CNS = system: SF-268 CNS
EKVX NSCLC = system: EKVX NSCLC
M14 melanoma = system: M14 melanoma
MDA-MB-231 breast = system: MDA-MB-231 breast
ACHN renal = system: ACHN renal
CAKI-1 renal = system: CAKI-1 renal
SW-620 colon = system: SW-620 colon
NCI-H522 lung = system: NCI-H522 lung
A549 NSCLC = system: A549 NSCLC
SN12C renal = system: SN12C renal
RXF 393 renal = system: RXF 393 renal
SNB-19 CNS = system: SNB-19 CNS
NCI/ADR-RES ovarian = system: NCI/ADR-RES ovarian
SK-OV-3 ovarian = system: SK-OV-3 ovarian
MCF7 breast = system: MCF7 breast
OVCAR-8 ovarian = system: OVCAR-8 ovarian
IGROV1 ovarian = system: IGROV1 ovarian
U251 CNS = system: U251 CNS
OVCAR-3 ovarian = system: OVCAR-3 ovarian
SF-295 CNS = system: SF-295 CNS
HOP-92 NSCLC = system: HOP-92 NSCLC
SK-MEL-5 melanoma = system: SK-MEL-5 melanoma
HOP-62 NSCLC = system: HOP-62 NSCLC
HS 578T breast = system: HS 578T breast
UO-31 renal = system: UO-31 renal
786-0 renal = system: 786-0 renal
T-47D breast = system: T-47D breast
SNB-75 CNS = system: SNB-75 CNS
UACC-257 melanoma = system: UACC-257 melanoma
RPMI-8226 leukemia = system: RPMI-8226 leukemia
OVCAR-4 ovarian = system: OVCAR-4 ovarian
HT29 colon = system: HT29 colon
UACC-62 melanoma = system: UACC-62 melanoma
TK-10 renal = system: TK-10 renal
MALME-3M melanoma = system: MALME-3M melanoma
MDA-MB-435 = system: MDA-MB-435
LOX IMVI melanoma = system: LOX IMVI melanoma
CCRF-CEM leukemia = system: CCRF-CEM leukemia
HCC-2998 colon = system: HCC-2998 colon

c1ccc(C2=NNC3c4ccccc4-c4ccccc4N3C2)cc1 (stereo unspecified)
TGI (K-562 leukemia): 82 µM
TGI (SK-MEL-2 melanoma): 45.8 µM
TGI (BT-549 breast): > 100 µM
TGI (SF-539 CNS): 50.5 µM
TGI (NCI-H460 lung): 53.3 µM
TGI (SK-MEL-28 melanoma): > 100 µM
TGI (KM12 colon): > 100 µM
TGI (HCT-116 colon): > 100 µM
TGI (HL-60(TB) leukemia): 6.91 µM
TGI (OVCAR-5 ovarian): > 100 µM
TGI (MOLT-4 leukemia): 56.9 µM
TGI (DU-145 prostate): > 100 µM
TGI (PC-3 prostate): 65.5 µM
TGI (HCT-15 colon): > 100 µM
TGI (NCI-H23 lung): 67.8 µM
TGI (MDA-N): > 100 µM
TGI (NCI-H226 lung): 71.7 µM
TGI (COLO 205 colon): 37.3 µM
TGI (SR leukemia): 56.8 µM
TGI (A498 renal): 98.5 µM
TGI (SF-268 CNS): > 100 µM
TGI (EKVX NSCLC): > 100 µM
TGI (M14 melanoma): > 100 µM
TGI (MDA-MB-231 breast): > 100 µM
TGI (ACHN renal): > 100 µM
TGI (CAKI-1 renal): > 100 µM
TGI (SW-620 colon): > 100 µM
TGI (NCI-H522 lung): 80.3 µM
TGI (A549 NSCLC): > 100 µM
TGI (SN12C renal): > 100 µM
TGI (RXF 393 renal): > 100 µM
TGI (SNB-19 CNS): > 100 µM
TGI (NCI/ADR-RES ovarian): > 100 µM
TGI (SK-OV-3 ovarian): > 100 µM
TGI (MCF7 breast): > 100 µM
TGI (OVCAR-8 ovarian): > 100 µM
TGI (IGROV1 ovarian): > 100 µM
TGI (U251 CNS): > 100 µM
TGI (OVCAR-3 ovarian): > 100 µM
TGI (SF-295 CNS): > 100 µM
TGI (HOP-92 NSCLC): > 100 µM
TGI (SK-MEL-5 melanoma): 29.4 µM
TGI (HOP-62 NSCLC): > 100 µM
TGI (HS 578T breast): > 100 µM
TGI (UO-31 renal): > 100 µM
TGI (786-0 renal): > 100 µM
TGI (T-47D breast): 92.4 µM
TGI (SNB-75 CNS): 66.1 µM
TGI (UACC-257 melanoma): 61.6 µM
TGI (RPMI-8226 leukemia): 57.8 µM
TGI (OVCAR-4 ovarian): > 100 µM
TGI (HT29 colon): > 100 µM
TGI (UACC-62 melanoma): 35.2 µM
TGI (TK-10 renal): 91.7 µM
TGI (MALME-3M melanoma): 83.1 µM
TGI (MDA-MB-435): 68.1 µM
TGI (LOX IMVI melanoma): > 100 µM

CSC1=N/C(=C\c2ccc(C)cc2)C(=O)N1
TGI (CCRF-CEM leukemia): > 100 µM
TGI (SK-MEL-2 melanoma): > 100 µM
TGI (BT-549 breast): > 100 µM
TGI (SF-539 CNS): > 100 µM
TGI (SK-MEL-28 melanoma): > 100 µM
TGI (KM12 colon): > 100 µM
TGI (HCT-116 colon): > 100 µM
TGI (HL-60(TB) leukemia): > 100 µM
TGI (OVCAR-5 ovarian): > 100 µM
TGI (MOLT-4 leukemia): > 100 µM
TGI (DU-145 prostate): > 100 µM
TGI (PC-3 prostate): > 100 µM
TGI (HCT-15 colon): > 100 µM
TGI (NCI-H23 lung): > 100 µM
TGI (MDA-N): > 100 µM
TGI (NCI-H226 lung): > 100 µM
TGI (COLO 205 colon): > 100 µM
TGI (SR leukemia): > 100 µM
TGI (SF-268 CNS): > 100 µM
TGI (EKVX NSCLC): > 100 µM
TGI (M14 melanoma): > 100 µM
TGI (MDA-MB-231 breast): > 100 µM
TGI (ACHN renal): > 100 µM
TGI (CAKI-1 renal): > 100 µM
TGI (SW-620 colon): > 100 µM
TGI (NCI-H522 lung): > 100 µM
TGI (A549 NSCLC): > 100 µM
TGI (SN12C renal): > 100 µM
TGI (RXF 393 renal): 96.2 µM
TGI (SNB-19 CNS): > 100 µM
TGI (NCI/ADR-RES ovarian): > 100 µM
TGI (SK-OV-3 ovarian): > 100 µM
TGI (MCF7 breast): > 100 µM
TGI (OVCAR-8 ovarian): > 100 µM
TGI (IGROV1 ovarian): > 100 µM
TGI (U251 CNS): > 100 µM
TGI (OVCAR-3 ovarian): > 100 µM
TGI (SF-295 CNS): > 100 µM
TGI (HOP-92 NSCLC): > 100 µM
TGI (HOP-62 NSCLC): > 100 µM
TGI (HS 578T breast): > 100 µM
TGI (UO-31 renal): > 100 µM
TGI (786-0 renal): > 100 µM
TGI (T-47D breast): > 100 µM
TGI (SNB-75 CNS): > 100 µM
TGI (HCC-2998 colon): > 100 µM
TGI (UACC-257 melanoma): > 100 µM
TGI (RPMI-8226 leukemia): > 100 µM
TGI (OVCAR-4 ovarian): > 100 µM
TGI (HT29 colon): > 100 µM
TGI (UACC-62 melanoma): > 100 µM
TGI (TK-10 renal): > 100 µM
TGI (MALME-3M melanoma): > 100 µM
TGI (MDA-MB-435): > 100 µM
TGI (LOX IMVI melanoma): > 100 µM

COC(=O)C1C2OC(C)(C)OC2CN1S(=O)(=O)c1ccc(C)cc1 (stereo unspecified)
TGI (K-562 leukemia): > 100 µM
TGI (CCRF-CEM leukemia): > 100 µM
TGI (SK-MEL-2 melanoma): > 100 µM
TGI (BT-549 breast): > 100 µM
TGI (SF-539 CNS): > 100 µM
TGI (NCI-H460 lung): > 100 µM
TGI (SK-MEL-28 melanoma): > 100 µM
TGI (KM12 colon): > 100 µM
TGI (HCT-116 colon): > 100 µM
TGI (HL-60(TB) leukemia): > 100 µM
TGI (OVCAR-5 ovarian): > 100 µM
TGI (MOLT-4 leukemia): > 100 µM
TGI (DU-145 prostate): > 100 µM
TGI (PC-3 prostate): > 100 µM
TGI (HCT-15 colon): > 100 µM
TGI (NCI-H23 lung): > 100 µM
TGI (MDA-N): > 100 µM
TGI (NCI-H226 lung): 41.1 µM
TGI (COLO 205 colon): > 100 µM
TGI (SR leukemia): > 100 µM
TGI (A498 renal): > 100 µM
TGI (SF-268 CNS): > 100 µM
TGI (EKVX NSCLC): > 100 µM
TGI (M14 melanoma): > 100 µM
TGI (MDA-MB-231 breast): > 100 µM
TGI (ACHN renal): > 100 µM
TGI (CAKI-1 renal): > 100 µM
TGI (SW-620 colon): > 100 µM
TGI (NCI-H522 lung): > 100 µM
TGI (A549 NSCLC): > 100 µM
TGI (SN12C renal): > 100 µM
TGI (RXF 393 renal): > 100 µM
TGI (SNB-19 CNS): > 100 µM
TGI (NCI/ADR-RES ovarian): > 100 µM
TGI (SK-OV-3 ovarian): > 100 µM
TGI (MCF7 breast): > 100 µM
TGI (OVCAR-8 ovarian): > 100 µM
TGI (IGROV1 ovarian): > 100 µM
TGI (U251 CNS): > 100 µM
TGI (OVCAR-3 ovarian): > 100 µM
TGI (SF-295 CNS): > 100 µM
TGI (HOP-92 NSCLC): > 100 µM
TGI (SK-MEL-5 melanoma): > 100 µM
TGI (HOP-62 NSCLC): > 100 µM
TGI (HS 578T breast): > 100 µM
TGI (UO-31 renal): > 100 µM
TGI (786-0 renal): > 100 µM
TGI (T-47D breast): > 100 µM
TGI (SNB-75 CNS): > 100 µM
TGI (HCC-2998 colon): > 100 µM
TGI (UACC-257 melanoma): > 100 µM
TGI (RPMI-8226 leukemia): > 100 µM
TGI (OVCAR-4 ovarian): > 100 µM
TGI (HT29 colon): > 100 µM
TGI (UACC-62 melanoma): > 100 µM
TGI (TK-10 renal): > 100 µM
TGI (MALME-3M melanoma): > 100 µM
TGI (MDA-MB-435): > 100 µM
TGI (LOX IMVI melanoma): > 100 µM
